In patent US20260041811A1, “HYDROGEL FOR THE REDUCTION OF BIOFILMS” (PAUL HARTMANN AG, priority 2022, published 2026):

Conditions: alkaline pH versus neutral and acidic pH

With O=C([O-])CN(CCN(CC(=O)[O-])CC(=O)[O-])CC(=O)[O-].[Ag+].[Ag+].[Zn+2] [Ag2Zn(EDTA)] the “stability of the active ingredient-containing solution (precipitation)” value was “can be stabilized by an alkaline pH”.
